Reference: publication PMC3553658 (Combinatorial chemistry & high throughput screening, 2012)
Entries after “also recorded” stand apart in the source; their conditions may differ.

Key:
Assay type in all cases: biochemical
[1] = target: T1, SET8 (Homo sapiens, UniProt Q9NQR1); experiment: SPIA-bead assay; details: read-out: SET8 [% IHBN], SPIA primary screen, 10 μM compound, duplicate
T1 sequence (Q9NQR1 191-352 isoform Q9NQR1-2): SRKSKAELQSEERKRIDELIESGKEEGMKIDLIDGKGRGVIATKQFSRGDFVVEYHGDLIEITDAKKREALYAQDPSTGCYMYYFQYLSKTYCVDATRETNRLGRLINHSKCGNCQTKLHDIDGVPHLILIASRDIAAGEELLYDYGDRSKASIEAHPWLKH

[2] = target: T2, SETD2 (Homo sapiens, UniProt Q9BYW2); experiment: SPIA-bead assay; details: SPIA primary screen, 10 μM compound, duplicate
T2 sequence (Q9BYW2 1347-1711): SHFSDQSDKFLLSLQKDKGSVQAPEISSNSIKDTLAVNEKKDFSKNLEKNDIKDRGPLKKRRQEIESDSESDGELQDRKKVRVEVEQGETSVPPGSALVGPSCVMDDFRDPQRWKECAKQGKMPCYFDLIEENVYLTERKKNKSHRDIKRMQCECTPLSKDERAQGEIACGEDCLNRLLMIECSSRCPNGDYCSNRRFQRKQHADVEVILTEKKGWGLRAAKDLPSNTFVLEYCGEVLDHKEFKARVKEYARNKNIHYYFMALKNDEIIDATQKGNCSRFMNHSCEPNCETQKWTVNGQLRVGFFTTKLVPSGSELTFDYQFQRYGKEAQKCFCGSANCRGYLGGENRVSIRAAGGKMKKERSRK

[3] = target: T3, SET7/9 (Homo sapiens, UniProt Q8WTS6); experiment: Filter-paper assay dose response, SET7/9; details: up to 100 μM
T3 sequence (Q8WTS6 1-366): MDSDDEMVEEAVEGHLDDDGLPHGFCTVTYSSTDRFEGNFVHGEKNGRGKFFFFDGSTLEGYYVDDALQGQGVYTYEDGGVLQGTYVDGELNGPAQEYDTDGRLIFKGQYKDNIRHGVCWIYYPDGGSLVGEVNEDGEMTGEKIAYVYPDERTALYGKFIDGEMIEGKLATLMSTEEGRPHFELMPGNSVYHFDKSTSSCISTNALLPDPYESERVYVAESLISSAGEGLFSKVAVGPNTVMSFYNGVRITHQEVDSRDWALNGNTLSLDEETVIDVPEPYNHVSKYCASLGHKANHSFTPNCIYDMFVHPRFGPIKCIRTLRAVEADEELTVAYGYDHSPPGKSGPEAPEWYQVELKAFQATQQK

[4] = target: T1, SET8; experiment: Filter-paper assay dose response, SET8; details: up to 100 μM
[5] = target: T2, SETD2; experiment: Filter-paper assay dose response, SETD2; details: up to 100 μM
[6] = target: T4, EuHMTase1 (Homo sapiens, UniProt Q9H9B1); experiment: Filter-paper assay dose response, EuHMTase1; details: up to 100 μM
T4 sequence (Q9H9B1 982-1266): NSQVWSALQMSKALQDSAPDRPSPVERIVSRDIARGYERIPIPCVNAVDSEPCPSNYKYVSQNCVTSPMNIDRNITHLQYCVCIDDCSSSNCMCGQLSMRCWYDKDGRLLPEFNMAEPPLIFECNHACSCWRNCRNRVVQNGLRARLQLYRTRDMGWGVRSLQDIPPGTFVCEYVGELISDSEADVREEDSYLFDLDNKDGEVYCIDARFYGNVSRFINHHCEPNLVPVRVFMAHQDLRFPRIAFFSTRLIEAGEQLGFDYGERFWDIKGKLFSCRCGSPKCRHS

[7] = target: T3, SET7/9; experiment: SPIA-bead assay; details: SPIA primary screen, 10 μM compound, duplicate

SMILES	inhibition at 10 µM [1]	SETD2 [% IHBN] [2]	Inhibition of SET7/9 in filter-paper assay [3]	Inhibition of SET8 in filter-paper assay [4]	Inhibition of SETD2 in filter-paper assay [5]	Inhibition of EuHMTase1 in filter-paper assay [6]	SET7/9 [% IHBN] [7]
O=C(O)CCCC[C@@H]1SC[C@@H]2NC(=O)N[C@@H]21 [Biotin]	60 to 90%	60–90%	no inhibition; also recorded: did not find inhibition	no inhibition; also recorded: did not find inhibition	no inhibition; also recorded: did not find inhibition	no inhibition; also recorded: did not find inhibition	
O=C(Nc1ccc(C(=O)Nc2ccc(C(=O)Nc3ccc(S(=O)(=O)[O-])c4cc(S(=O)(=O)[O-])cc(S(=O)(=O)[O-])c34)cc2)cc1)Nc1ccc(C(=O)Nc2ccc(C(=O)Nc3ccc(S(=O)(=O)[O-])c4cc(S(=O)(=O)[O-])cc(S(=O)(=O)[O-])c34)cc2)cc1.[Na+].[Na+].[Na+].[Na+].[Na+].[Na+] [NF 279, 8,8′-[Carbonylbis(imino-4,1-phenylenecarbonylimino-4,1-phenylenecarbonylimino)]bis-1,3,5-naphtlenetrisulfonic acid hexasodium salt]							83%
